Activity calls are given as the source filed them. No cut-off for these calls is given here.

The term inhibition denotes the drop in the measured response relative to a control, in per cent.

The subject of test [1] is Plasmacytoid dendritic cell. The test can be described thus: Inhibition of F1F0-ATP synthase in CpG-A-stimulated human plasmacytoid dendritic cells at 1 uM assessed as reduction in TNF production in presence of 10 uM heptelidic acid. It counts as cell-based.
Test [2] deals with Plasmacytoid dendritic cell. The test can be described thus: Inhibition of F1F0-ATP synthase in human plasmacytoid dendritic cells at 1 uM assessed as decrease in IFN-alpha production. It counts as cell-based.
Test [3] deals with Plasmacytoid dendritic cell. The test can be described thus: Inhibition of F1F0-ATP synthase in human plasmacytoid dendritic cells at 1 uM assessed as decrease in TNF production. It counts as cell-based.
In test [4] the test system is Plasmacytoid dendritic cell. The test can be described thus: Inhibition of F1F0-ATP synthase in CpG-A-stimulated human plasmacytoid dendritic cells at 1 uM assessed as reduction in IFN-alpha production in presence of 10 uM heptelidic acid. Type of test: cell-based.
The target of test [5] is Tyrosine-protein kinase JAK2 (Homo sapiens) (UniProt O60674). Description: Inhibition of JAK2 in CpG-A and GM-CSF-activated human plasmacytoid dendritic cells at 1 uM assessed as decrease in kynurenine uptake. It counts as cell-based. The settings on record: Plasmacytoid dendritic cell.
Test [6] has the same target. Description: Inhibition of JAK2 in CpG-A and GM-CSF-activated human plasmacytoid dendritic cells at 1 uM assessed as decrease in TNF production. Type of test: cell-based. Particulars: Plasmacytoid dendritic cell.
The target is the same in test [7]. The test can be described thus: Inhibition of JAK2 in CpG-A and GM-CSF-activated human plasmacytoid dendritic cells at 1 uM assessed as decrease in IFN-alpha production. Type of test: cell-based. The settings on record: Plasmacytoid dendritic cell.
The target is the same in test [8]. Description: Inhibition of JAK2 in CpG-A and GM-CSF-activated human plasmacytoid dendritic cells at 1 uM assessed as decrease in mTORC1 activity. It counts as cell-based. Particulars: Plasmacytoid dendritic cell.
The target in test [9] is Large neutral amino acids transporter small subunit 1 (Homo sapiens) (UniProt Q01650). The test can be described thus: Inhibition of human LAT1 at 100 uM relative to control.
The target of test [10] is T1, Signal transducer and activator of transcription 5A (Homo sapiens) (UniProt P42229).
T1 sequence (whole entry): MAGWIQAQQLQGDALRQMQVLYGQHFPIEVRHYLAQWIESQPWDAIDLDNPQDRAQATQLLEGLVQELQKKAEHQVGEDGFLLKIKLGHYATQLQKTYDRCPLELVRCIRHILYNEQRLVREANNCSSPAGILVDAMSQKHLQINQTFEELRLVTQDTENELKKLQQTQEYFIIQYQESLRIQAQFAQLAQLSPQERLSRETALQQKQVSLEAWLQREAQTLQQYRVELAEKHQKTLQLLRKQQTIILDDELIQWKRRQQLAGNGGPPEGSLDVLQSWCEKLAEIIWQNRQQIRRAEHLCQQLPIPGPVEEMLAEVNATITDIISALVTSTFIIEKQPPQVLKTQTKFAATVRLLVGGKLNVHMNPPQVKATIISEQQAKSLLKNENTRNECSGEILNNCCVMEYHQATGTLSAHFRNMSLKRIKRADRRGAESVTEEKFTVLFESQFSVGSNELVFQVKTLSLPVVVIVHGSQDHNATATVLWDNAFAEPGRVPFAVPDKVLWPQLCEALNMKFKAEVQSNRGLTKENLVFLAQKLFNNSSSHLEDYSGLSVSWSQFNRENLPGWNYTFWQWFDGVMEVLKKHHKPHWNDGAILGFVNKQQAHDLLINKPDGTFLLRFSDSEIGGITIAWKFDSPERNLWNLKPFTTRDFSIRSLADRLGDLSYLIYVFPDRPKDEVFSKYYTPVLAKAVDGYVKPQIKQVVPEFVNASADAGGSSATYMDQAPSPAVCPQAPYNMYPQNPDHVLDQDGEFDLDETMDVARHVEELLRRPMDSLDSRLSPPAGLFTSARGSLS
The test can be described thus: Inhibition of STAT5 in IL-3 and CpG-A-stimulated human plasmacytoid dendritic cells at 10 to 50 nM assessed as decrease in TNF production in presence of 100 uM sulfasalazine. It counts as cell-based. Particulars: Plasmacytoid dendritic cell, dose 10-50 nM.

For test [11], the target named is T1, Signal transducer and activator of transcription 5A (Homo sapiens). Description: Inhibition of STAT5 in IL-3 and CpG-A-stimulated human plasmacytoid dendritic cells at 10 to 50 nM assessed as decrease in IFN-alpha production in presence of 100 uM sulfasalazine. It counts as cell-based. Particulars: Plasmacytoid dendritic cell, dose 10-50 nM.
Test [12] relates to Plasmacytoid dendritic cell. Description: Inhibition of SLC7A5/SLC3A2 in CpG-A-stimulated human plasmacytoid dendritic cells at 10 uM assessed as decrease in kynurenine transport. Type of test: cell-based.
Test [13] has as its target T2, mTORC1 (Homo sapiens) (UniProt P42345+Q8N122+Q9BVC4). Particulars: Plasmacytoid dendritic cell, dose 20.0 nM.
Description: Inhibition of mTORC1 in CpG-A-stimulated human plasmacytoid dendritic cells at 20 nM assessed as decrease in lactate release
For test [14], the target named is Tyrosine-protein kinase JAK2 (Homo sapiens) (UniProt O60674). The test can be described thus: Inhibition of JAK2 in IL3- and CpG-A-activated human plasmacytoid dendritic cells at 20 nM assessed as decrease in ENPP2/IFNA2 expression. Particulars: Plasmacytoid dendritic cell. Type of test: cell-based.
The target is the same in test [15]. Description: Inhibition of JAK2 in IL3- and CpG-A-activated human plasmacytoid dendritic cells at 20 nM assessed as decrease in MYO1E/IFNA2 expression. Type of test: cell-based. The settings on record: Plasmacytoid dendritic cell.
For test [16], the target named is T2, mTORC1 (Homo sapiens). Particulars: Plasmacytoid dendritic cell, dose 250.0 nM.
Description: Inhibition of mTORC1 in CpG-A-stimulated human plasmacytoid dendritic cells at 250 nM assessed as decrease in lactate release
Test [17] concerns the target Tyrosine-protein kinase JAK2 (Homo sapiens) (UniProt O60674). Description: Inhibition of JAK2 in TLR9-activated human plasmacytoid dendritic cells at 20 nM assessed as decrease in CpG-A stimulated SLC7A11 expression. The settings on record: Plasmacytoid dendritic cell. It counts as cell-based.

Chain of Tyrosine-protein kinase JAK2 (Homo sapiens) (O60674 whole entry): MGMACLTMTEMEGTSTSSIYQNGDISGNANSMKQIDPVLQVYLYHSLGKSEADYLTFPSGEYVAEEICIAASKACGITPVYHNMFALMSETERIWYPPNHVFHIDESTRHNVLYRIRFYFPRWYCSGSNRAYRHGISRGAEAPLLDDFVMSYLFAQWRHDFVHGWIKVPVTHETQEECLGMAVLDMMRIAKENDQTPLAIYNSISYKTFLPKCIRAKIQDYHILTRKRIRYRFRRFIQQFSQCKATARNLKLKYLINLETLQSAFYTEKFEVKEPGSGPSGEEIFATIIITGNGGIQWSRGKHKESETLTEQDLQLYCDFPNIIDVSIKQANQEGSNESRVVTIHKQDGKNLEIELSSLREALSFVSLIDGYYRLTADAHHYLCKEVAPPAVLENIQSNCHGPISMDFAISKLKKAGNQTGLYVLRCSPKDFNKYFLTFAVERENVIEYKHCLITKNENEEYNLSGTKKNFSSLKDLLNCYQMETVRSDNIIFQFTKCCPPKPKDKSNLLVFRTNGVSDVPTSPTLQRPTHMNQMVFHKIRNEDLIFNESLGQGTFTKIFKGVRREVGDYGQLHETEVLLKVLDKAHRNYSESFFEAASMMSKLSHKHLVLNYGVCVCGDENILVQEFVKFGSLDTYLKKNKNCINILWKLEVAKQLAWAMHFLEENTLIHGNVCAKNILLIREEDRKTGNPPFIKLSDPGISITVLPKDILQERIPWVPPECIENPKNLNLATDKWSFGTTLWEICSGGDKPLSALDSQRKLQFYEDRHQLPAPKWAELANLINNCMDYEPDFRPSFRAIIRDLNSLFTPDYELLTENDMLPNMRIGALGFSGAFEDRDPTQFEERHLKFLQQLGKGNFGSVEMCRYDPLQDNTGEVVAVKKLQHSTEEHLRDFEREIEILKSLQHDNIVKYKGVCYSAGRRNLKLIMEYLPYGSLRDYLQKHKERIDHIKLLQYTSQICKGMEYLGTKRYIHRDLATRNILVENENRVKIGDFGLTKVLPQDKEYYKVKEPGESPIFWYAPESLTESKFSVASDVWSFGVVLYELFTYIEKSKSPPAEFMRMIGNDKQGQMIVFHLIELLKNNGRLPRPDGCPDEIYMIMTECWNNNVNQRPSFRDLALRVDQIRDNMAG
Chain of Large neutral amino acids transporter small subunit 1 (Homo sapiens) (Q01650 whole entry): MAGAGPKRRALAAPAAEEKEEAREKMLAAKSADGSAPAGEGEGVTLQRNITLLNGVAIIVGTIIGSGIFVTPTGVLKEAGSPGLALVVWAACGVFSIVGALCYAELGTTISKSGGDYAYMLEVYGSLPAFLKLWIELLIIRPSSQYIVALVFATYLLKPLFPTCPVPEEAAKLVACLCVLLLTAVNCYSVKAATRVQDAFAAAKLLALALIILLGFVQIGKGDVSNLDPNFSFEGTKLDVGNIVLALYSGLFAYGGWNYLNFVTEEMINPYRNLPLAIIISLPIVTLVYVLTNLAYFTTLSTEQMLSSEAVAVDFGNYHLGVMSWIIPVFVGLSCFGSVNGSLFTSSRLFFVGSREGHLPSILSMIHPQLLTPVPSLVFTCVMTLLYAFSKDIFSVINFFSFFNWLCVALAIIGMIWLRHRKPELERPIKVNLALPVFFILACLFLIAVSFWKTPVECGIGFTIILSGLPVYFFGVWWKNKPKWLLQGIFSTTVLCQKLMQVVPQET
T2 sequence (Q8N122 whole entry, looked up, other chains not shown): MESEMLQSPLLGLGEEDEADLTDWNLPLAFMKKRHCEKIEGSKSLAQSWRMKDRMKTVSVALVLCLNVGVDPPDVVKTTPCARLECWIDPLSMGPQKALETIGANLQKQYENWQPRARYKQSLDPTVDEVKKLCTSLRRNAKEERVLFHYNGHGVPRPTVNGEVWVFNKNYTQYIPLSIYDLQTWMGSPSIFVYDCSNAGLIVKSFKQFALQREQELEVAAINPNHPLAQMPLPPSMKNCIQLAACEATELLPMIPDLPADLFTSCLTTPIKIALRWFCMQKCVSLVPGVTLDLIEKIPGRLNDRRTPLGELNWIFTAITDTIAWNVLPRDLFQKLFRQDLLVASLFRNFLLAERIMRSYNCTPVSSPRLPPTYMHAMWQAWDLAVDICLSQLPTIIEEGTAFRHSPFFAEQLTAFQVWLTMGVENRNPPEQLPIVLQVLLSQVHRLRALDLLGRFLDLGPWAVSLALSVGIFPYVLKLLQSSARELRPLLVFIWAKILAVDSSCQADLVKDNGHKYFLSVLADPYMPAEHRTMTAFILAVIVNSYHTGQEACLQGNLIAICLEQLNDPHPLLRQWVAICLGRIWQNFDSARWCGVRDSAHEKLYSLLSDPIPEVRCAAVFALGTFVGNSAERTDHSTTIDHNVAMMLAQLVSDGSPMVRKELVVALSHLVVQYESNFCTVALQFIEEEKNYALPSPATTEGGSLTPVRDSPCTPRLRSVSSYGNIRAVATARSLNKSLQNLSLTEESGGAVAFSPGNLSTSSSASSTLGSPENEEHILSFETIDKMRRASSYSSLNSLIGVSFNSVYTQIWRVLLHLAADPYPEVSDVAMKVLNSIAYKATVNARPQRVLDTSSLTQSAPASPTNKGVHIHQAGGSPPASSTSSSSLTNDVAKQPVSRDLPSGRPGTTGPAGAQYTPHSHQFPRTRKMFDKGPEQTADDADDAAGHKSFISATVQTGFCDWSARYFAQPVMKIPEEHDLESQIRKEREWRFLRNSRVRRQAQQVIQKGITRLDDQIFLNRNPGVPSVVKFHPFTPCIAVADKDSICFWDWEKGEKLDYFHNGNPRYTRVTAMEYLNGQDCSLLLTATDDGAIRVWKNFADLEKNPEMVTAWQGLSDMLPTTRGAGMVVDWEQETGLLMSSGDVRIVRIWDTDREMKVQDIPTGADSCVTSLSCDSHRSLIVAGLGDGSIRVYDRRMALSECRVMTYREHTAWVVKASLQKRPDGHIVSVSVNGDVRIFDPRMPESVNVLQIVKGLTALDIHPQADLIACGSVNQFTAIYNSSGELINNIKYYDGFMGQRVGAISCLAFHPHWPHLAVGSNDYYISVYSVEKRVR
T2 sequence (Q9BVC4 whole entry, looked up, other chains not shown): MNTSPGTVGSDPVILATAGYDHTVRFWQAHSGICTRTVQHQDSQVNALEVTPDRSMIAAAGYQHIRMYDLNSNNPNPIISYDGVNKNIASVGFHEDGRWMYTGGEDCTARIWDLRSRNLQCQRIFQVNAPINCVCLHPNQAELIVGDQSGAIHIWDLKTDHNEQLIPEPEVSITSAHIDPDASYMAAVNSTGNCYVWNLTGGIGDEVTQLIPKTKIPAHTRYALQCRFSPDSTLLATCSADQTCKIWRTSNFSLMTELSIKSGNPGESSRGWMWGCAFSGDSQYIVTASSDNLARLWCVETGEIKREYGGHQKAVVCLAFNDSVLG

`CC[C@H]1/C=C/C=C/C[C@@H](C)[C@H](O)[C@@](C)(O)C(=O)[C@@H](C)[C@H](O)[C@@H](C)C(=O)[C@@H](C)[C@H](O)[C@@H](C)/C=C/C(=O)O[C@@H]2[C@H](C)[C@H](CC1)O[C@]1(CC[C@H](C)[C@H](C[C@@H](C)O)O1)[C@H]2C`: the inhibition result in [1], in test [2] and in [4] was “Active” throughout. In test [3], the inhibition entry is “inactive”.
`Cc1cc(Nc2nc(N[C@@H](C)c3ncc(F)cn3)ncc2Cl)[nH]n1`: the inhibition result in test [5], in test [6], in [7] and in test [8] was “Active” each time.
In the case of `N#Cc1ccc(Cl)cc1/N=c1\ssnc1Cl`, in test [9], the inhibition is more than 90%.
Take `N#Cc1cc(Br)ccc1/N=c1\ssnc1Cl`: the inhibition in [9] was more than 90%.
Take `CN(C)CCNc1nc2ccccc2c2[nH]c3ccccc3c12`: the inhibition entry in test [10] and in [11] was “Active” each time.
`NC1(C(=O)O)CC2CCC1C2` (centres undefined): the inhibition result in test [12] was “Active”.
For `CO[C@H]1CC2CC[C@@H](C)[C@@](O)(O2)C(=O)C(=O)N2CCCC[C@H]2C(=O)O[C@H]([C@H](C)C[C@@H]2CC[C@@H](O)[C@H](OC)C2)CC(=O)[C@H](C)/C=C(\C)[C@@H](O)[C@@H](OC)C(=O)[C@H](C)C[C@H](C)/C=C/C=C/C=C/1C`, the inhibition result (on mTORC1 (Homo sapiens) [13]; in test [14]; in test [15]; on mTORC1 (Homo sapiens) [16]; in [17]) was “Active” in each case.
In turn, `N#C/C=N/c1c(SS)c(-c2ccccc2)nn1Cc1ccccc1` showed an inhibition in test [9] of more than 90%.
